Experimental data: patent US6756210B2, “Linoleic acid diol and glucuronide conjugate levels as diagnostic markers of disorders of abnormal regulation of cytochrome P450 metabolism of unsaturated fatty acids” (The Regents of the University of California, priority 2001, dated 2004)
Where two headings read alike, the source gives them in different places.

How the values were obtained:
[1] = target: T1, recombinant mouse sEH (MsEH) (Mus musculus, UniProt P34914); assay: Inhibition of recombinant mouse sEH (MsEH); type: biochemical
T1 sequence (P34914 1-554): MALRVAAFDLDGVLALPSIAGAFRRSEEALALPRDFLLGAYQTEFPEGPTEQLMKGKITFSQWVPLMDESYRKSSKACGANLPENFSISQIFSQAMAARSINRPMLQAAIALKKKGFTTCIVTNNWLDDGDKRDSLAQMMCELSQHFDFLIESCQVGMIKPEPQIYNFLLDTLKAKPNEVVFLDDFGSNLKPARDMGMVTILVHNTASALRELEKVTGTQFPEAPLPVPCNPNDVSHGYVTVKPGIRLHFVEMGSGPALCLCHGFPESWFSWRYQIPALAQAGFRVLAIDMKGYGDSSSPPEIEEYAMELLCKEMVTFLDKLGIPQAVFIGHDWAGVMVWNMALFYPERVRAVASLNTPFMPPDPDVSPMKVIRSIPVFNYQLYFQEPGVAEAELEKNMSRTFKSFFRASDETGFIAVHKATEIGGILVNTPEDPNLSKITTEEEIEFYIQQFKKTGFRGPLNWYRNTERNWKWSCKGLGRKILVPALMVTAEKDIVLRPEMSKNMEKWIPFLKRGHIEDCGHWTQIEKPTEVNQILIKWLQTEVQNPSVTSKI

Human sEH (HsEH) = target: T2, Human sEH (HsEH) (Homo sapiens, UniProt P34913); assay: Inhibition of recombinant human sEH (HsEH); type: biochemical; settings: HsEH 0.26 μM
T2 sequence (P34913 1-555): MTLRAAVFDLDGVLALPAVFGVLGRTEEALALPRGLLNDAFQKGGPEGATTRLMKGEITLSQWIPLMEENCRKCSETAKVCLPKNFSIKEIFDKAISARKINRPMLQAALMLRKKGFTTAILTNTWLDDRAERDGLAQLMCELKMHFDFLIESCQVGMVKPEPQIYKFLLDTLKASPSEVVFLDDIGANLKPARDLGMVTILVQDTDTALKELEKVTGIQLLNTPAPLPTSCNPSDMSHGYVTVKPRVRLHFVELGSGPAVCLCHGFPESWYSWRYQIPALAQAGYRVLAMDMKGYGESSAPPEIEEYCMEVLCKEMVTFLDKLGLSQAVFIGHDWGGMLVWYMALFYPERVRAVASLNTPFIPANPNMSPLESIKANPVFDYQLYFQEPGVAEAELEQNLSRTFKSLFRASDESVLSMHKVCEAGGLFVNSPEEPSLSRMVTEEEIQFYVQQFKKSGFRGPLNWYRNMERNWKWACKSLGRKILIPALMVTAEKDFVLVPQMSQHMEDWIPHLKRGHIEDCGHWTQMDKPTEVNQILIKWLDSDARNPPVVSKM

[2] = Table 2, MsEH 0.13 μM, read-out: Mouse sEH IC50
[3] = Table 1, MsEH 0.13 μM, read-out: Mouse sEH IC50

COC(c1ccccc1)C1OC1c1ccc(-c2ccccc2)cc1 (racemic) [R=4-C6H5—C6H4, R′=C6H5, X—Y=CH—OCH3, ±]
IC50 [1, 2]: 480 ± 50 nM
IC50 (Human sEH (HsEH); Table 2): 1360 ± 70 nM

CCCCCCCCCCNC(=O)Nc1ccccc1 [compound 148]
IC50 [1, 3]: 210 ± 10 nM
IC50 (Human sEH (HsEH); Table 1): 610 ± 20 nM

O=C(NCc1ccccc1)NC1CCCCC1 [compound 270]
IC50 [1, 3]: 50 ± 10 nM
IC50 (Human sEH (HsEH); Table 1): 1900 ± 100 nM

N#Cc1ccc(NC(=O)NC2CCCCC2)cc1 [compound 118]
IC50 [1, 3]: 60 ± 10 nM
IC50 (Human sEH (HsEH); Table 1): 100 ± 10 nM

O=C(NCC1CCCCC1)NC1CCCCC1 [compound 57]
IC50 [1, 3]: 60 ± 10 nM
IC50 (Human sEH (HsEH); Table 1): 160 ± 10 nM

ON=C(c1ccccc1)C1OC1c1ccccc1 (racemic) [R=C6H5, R′=C6H5, X—Y=C═NOH, ±]
IC50 [1, 2]: 3500 ± 500 nM
IC50 (Human sEH (HsEH); Table 2): 290 ± 10 nM

COc1ccc(NC(=O)NC2CCCCC2)cc1 [compound 67]
IC50 [1, 3]: 710 ± 40 nM
IC50 (Human sEH (HsEH); Table 1): 230 ± 10 nM

O=C(NC1CCCCC1)OCCCCC1CCCCC1 [compound 276]
IC50 [1, 3]: 1100 ± 100 nM
IC50 (Human sEH (HsEH); Table 1): 340 ± 20 nM

CCCCCCCCCNC(=O)NCCC [compound 429]
IC50 [1, 3]: 380 ± 40 nM
IC50 (Human sEH (HsEH); Table 1): 1700 ± 400 nM

O=C(NCCC1=CCCCC1)NCc1ccccc1 [compound 471]
IC50 [1, 3]: 250 ± 30 nM
IC50 (Human sEH (HsEH); Table 1): 2200 ± 100 nM

CCCCCCCCCCCCNC(=O)NC1CCC1 [compound 504]
IC50 [1, 3]: 800 ± 100 nM
IC50 (Human sEH (HsEH); Table 1): 23000 ± 4000 nM

CCOC(CCCNC(=O)Nc1cccc(Cl)c1)OCC [compound 167]
IC50 [1, 3]: 390 ± 20 nM
IC50 (Human sEH (HsEH); Table 1): 3770 ± 30 nM

[O-][S+](c1ccccc1)C1OC1c1ccccc1 (racemic) [R=C6H5, R′=C6H5, X—Y=S═O, ±]
IC50 [1, 2]: 2300 ± 400 nM
IC50 (Human sEH (HsEH); Table 2): 310 ± 20 nM

CC(NC(=O)NC1CCCCC1)C1C2CC3CC(C2)CC1C3 (centres unmarked) [compound 358]
IC50 [1, 3]: 50 ± 10 nM
IC50 (Human sEH (HsEH); Table 1): 180 ± 40 nM

O=C(NCC1CCCCC1)Nc1ccccc1 [compound 176]
IC50 [1, 3]: 60 ± 10 nM
IC50 (Human sEH (HsEH); Table 1): 530 ± 30 nM

C(=NC1CCCCC1)=NC1CCCCC1
IC50 [1]: 250 ± 20 nM
IC50 (Human sEH (HsEH); Table 1): 470 ± 10 nM

O=C(NCCc1ccccc1)NCc1ccccc1 [compound 470]
IC50 [1, 3]: 590 ± 80 nM
IC50 (Human sEH (HsEH); Table 1): 7600 ± 100 nM

CC(C)CNC(=O)NC1CCCCC1 [compound 103]
IC50 [1, 3]: 120 ± 10 nM
IC50 (Human sEH (HsEH); Table 1): 2200 ± 100 nM

O=C(NC1CCCCCC1)NC1CCCCC1 [compound 22]
IC50 [1, 3]: 50 ± 100 nM
IC50 (Human sEH (HsEH); Table 1): 100 ± 10 nM

O=C(NCCCCc1ccccc1)NC1CCCCC1 [compound 105]
IC50 [1, 3]: 50 ± 10 nM
IC50 (Human sEH (HsEH); Table 1): 580 ± 30 nM

Cc1ccc(NC(=O)NC2CCCCC2)cc1 [compound 108]
IC50 [1, 3]: 130 ± 10 nM
IC50 (Human sEH (HsEH); Table 1): 170 ± 10 nM

O=C(Nc1ccc(OC(F)(F)F)cc1)NC1CCCCC1 [compound 343]
IC50 [1, 3]: 50 ± 10 nM
IC50 (Human sEH (HsEH); Table 1): 100 ± 10 nM

CC(C)c1ccc(NC(=O)NCC2CCCCC2)cc1 [compound 180]
IC50 [1, 3]: 60 ± 10 nM
IC50 (Human sEH (HsEH); Table 1): 100 ± 10 nM

CC(=O)C1OC1c1ccc([N+](=O)[O-])cc1 (racemic) [R=4-NO2—C6H4, R′=CH3, X—Y=C═O, ±]
IC50 [1, 2]: 163000 ± 11000 nM
IC50 (Human sEH (HsEH); Table 2): 269000 ± 5000 nM

O=C(NCCCc1ccccc1)NC1CCCCC1 [compound 104]
IC50 [1, 3]: 40 ± 10 nM
IC50 (Human sEH (HsEH); Table 1): 290 ± 10 nM

CCCCCCc1ccc(NC(=O)NC2CCCCC2)cc1 [compound 501]
IC50 [1, 3]: 50 ± 10 nM
IC50 (Human sEH (HsEH); Table 1): 160 ± 10 nM

CCCCCCNC(=O)Nc1ccc(C(C)C)cc1 [compound 287]
IC50 [1, 3]: 90 ± 10 nM
IC50 (Human sEH (HsEH); Table 1): 100 ± 10 nM

O=C(NCCc1ccccc1)NC1CCCCC1 [compound 36]
IC50 [1, 3]: 60 ± 10 nM
IC50 (Human sEH (HsEH); Table 1): 160 ± 20 nM

O=C(NCCNc1ccccc1)NC1CCCCC1 [compound 463]
IC50 [1, 3]: 900 ± 70 nM
IC50 (Human sEH (HsEH); Table 1): 8300 ± 400 nM

Cc1ccc(C(=O)C2OC2c2ccc(-c3ccccc3)cc2)cc1 (racemic) [R=4-C6H5—C6H4, R′=4-CH3—C6H4, X—Y=C═O, ±]
IC50 [1, 2]: 100 ± 10 nM
IC50 (Human sEH (HsEH); Table 2): 190 ± 30 nM

O=C(NC1CCCCC1)NC1C2CC3CC(C2)CC1C3 (centres unmarked) [compound 427]
IC50 [1, 3]: 50 ± 10 nM
IC50 (Human sEH (HsEH); Table 1): 100 ± 10 nM

CCCCCCCCCCCCCCNC(=O)NC1CCCCC1 [compound 477]
IC50 [1, 3]: 110 ± 10 nM
IC50 (Human sEH (HsEH); Table 1): 240 ± 10 nM

CC(C)(C)CC(C)(C)NC(=O)NC1C2CC3CC(C2)CC1C3 (centres unmarked) [compound 375]
IC50 [1, 3]: 180 ± 10 nM
IC50 (Human sEH (HsEH); Table 1): 110 ± 10 nM

CCCCCCCCNC(=O)NC1CCC1 [compound 181]
IC50 [1, 3]: 520 ± 20 nM
IC50 (Human sEH (HsEH); Table 1): 1710 ± 230 nM
